Assay results reported in patent US9018414B2, “Substituted 3-phenylpropionic acids and the use thereof” (Bayer Intellectual Property GmbH, priority 2009, dated 2015).

What was measured:
[1] = target: T1, haem-containing recombinant soluble guanylate cyclase (sGC) (Rattus norvegicus, UniProt P20595); assay: Stimulation of recombinant soluble guanylate cyclase (sGC) in vitro, haem-containing enzyme; assay type: biochemical; details: for Effect of combination with the NO donor DEA/NO on sGC stimulation: haem-containing sGC
T1 construct: made in house; host or cells: Sf9 insect cells (baculovirus)
T1 sequence (P20595 1-619): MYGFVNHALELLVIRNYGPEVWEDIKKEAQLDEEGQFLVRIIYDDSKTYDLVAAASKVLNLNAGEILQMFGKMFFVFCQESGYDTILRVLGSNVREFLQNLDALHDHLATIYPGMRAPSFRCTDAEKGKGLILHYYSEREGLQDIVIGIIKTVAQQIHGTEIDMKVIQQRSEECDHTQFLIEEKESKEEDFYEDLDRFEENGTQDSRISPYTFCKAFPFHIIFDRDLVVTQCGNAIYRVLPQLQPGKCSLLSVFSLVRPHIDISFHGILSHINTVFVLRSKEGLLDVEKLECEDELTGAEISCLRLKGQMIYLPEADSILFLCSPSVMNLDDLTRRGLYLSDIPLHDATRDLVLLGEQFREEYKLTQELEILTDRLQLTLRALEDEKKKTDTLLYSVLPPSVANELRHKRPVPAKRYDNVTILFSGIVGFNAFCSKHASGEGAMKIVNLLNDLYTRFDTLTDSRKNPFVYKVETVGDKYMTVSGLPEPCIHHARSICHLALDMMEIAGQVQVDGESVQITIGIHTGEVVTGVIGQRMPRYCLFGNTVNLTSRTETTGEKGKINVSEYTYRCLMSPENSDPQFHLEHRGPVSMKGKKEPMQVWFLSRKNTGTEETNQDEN
T1 sequence (P19686 1-690 partner): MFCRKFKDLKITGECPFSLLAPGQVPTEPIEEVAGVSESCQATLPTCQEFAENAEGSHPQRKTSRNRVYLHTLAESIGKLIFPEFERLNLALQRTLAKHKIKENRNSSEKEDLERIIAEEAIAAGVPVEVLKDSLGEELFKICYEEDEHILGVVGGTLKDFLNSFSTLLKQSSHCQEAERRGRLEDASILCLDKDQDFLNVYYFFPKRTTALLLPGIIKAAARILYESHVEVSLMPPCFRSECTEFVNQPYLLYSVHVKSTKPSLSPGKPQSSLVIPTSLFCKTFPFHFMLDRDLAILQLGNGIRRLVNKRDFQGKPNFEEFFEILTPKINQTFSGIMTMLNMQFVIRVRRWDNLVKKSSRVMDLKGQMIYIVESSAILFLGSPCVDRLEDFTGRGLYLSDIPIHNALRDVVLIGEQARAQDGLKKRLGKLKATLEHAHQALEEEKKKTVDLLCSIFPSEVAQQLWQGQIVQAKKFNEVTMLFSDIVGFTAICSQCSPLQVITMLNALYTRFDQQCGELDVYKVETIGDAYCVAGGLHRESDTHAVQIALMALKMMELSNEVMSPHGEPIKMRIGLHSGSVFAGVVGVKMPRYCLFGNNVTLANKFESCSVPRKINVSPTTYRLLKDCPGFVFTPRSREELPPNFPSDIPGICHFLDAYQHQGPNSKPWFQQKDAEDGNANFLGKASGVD
Method: (§1) Investigations on the stimulation of recombinant soluble guanylate cyclase (sGC) by the compounds according to the invention with and without sodium nitroprusside, and with and without the haem-dependent sGC inhibitor 1H-1,2,4-oxadiazolo-(4,3a)-quinoxalin-1-one (ODQ) are carried out by the method described in detail in the following reference: M. Hoenicka, E. M. Becker, H. Apeler, T. Sirichoke, H. Schroeder, R. Gerzer and J.-P. Stasch, “Purified soluble guanylyl cyclase expressed in a baculovirus/Sf9 system: Stimulation by YC-1, nitric oxide, and […]”, J. Mol. Med. 77 (1999), 14-23. The haem-free guanylate cyclase is obtained by adding Tween 20 to the sample buffer (0.5% in the final concentration).
(§2) The activation of sGC by a test substance is reported as x-fold stimulation of the basal activity.

[2] = target: T2, haem-free recombinant soluble guanylate cyclase (sGC) (Rattus norvegicus, UniProt P20595); assay: Stimulation of recombinant soluble guanylate cyclase (sGC) in vitro, haem-free enzyme; assay type: biochemical
T2 construct: made in house; host or cells: Sf9 insect cells (baculovirus)
T2 sequence (P20595 1-619): T1 sequence (P20595 1-619)
T2 sequence (P19686 1-690 partner): T1 sequence (P19686 1-690 partner)
Method: as §1, §2

[3] = system: recombinant guanylate cyclase reporter cell line; assay: Action at recombinant guanylate cyclase reporter cell line (CHO reporter cell); assay type: cell-based; details: MEC = minimal effective concentration; read-out: sGC-activating activity in the CHO reporter cell in vitro, MEC
Method: The cellular action of the compounds according to the invention is determined at a recombinant guanylate cyclase reporter cell line, as described in F. Wunder et al., Anal. Biochem. 339, 104-112 (2005).

[4] = target: T3, soluble guanylate cyclase (sGC) (Rattus norvegicus, UniProt P20595); assay: Stimulation of sGC enzyme activity (PPi detection, luciferase luminescence); assay type: biochemical; details: for EC50: EC50 = concentration at 50% of maximum efficacy, read-out: Activating action at the sGC enzyme in vitro, EC50; for Activating action at the sGC enzyme in vitro, MEC: MEC = minimal effective concentration
T3 construct: made in house; host or cells: Sf9 insect cells (baculovirus)
T3 sequence (P20595 1-619): T1 sequence (P20595 1-619)
T3 sequence (P19686 1-690 partner): T1 sequence (P19686 1-690 partner)
Method: Soluble guanylate cyclase (sGC) converts on stimulation GTP into cGMP and pyrophosphate (PPi). PPi is detected with the aid of the assay described below. The signal produced in the assay increases as the reaction progresses and serves as a measure of the sGC enzyme activity under the given stimulation.
To carry out the assay, 29 μl of enzyme solution [0-10 nM soluble guanylate cyclase (prepared according to Hönicka et al., J. Mol. Med. 77, 14-23 (1999)) in 50 mM TEA, 2 mM MgCl2, 0.1% BSA (fraction V), 0.005% Brij®, pH 7.5] are initially introduced into a microplate, and 1 μl of the substance to be tested (as a serially diluted solution in DMSO) is added. The mixture is incubated at room temperature for 10 min. Then 20 μl of detection mix [1.2 nM Firefly Luciferase (Photinus pyralis luciferase, Promega), 29 μM dehydroluciferin (prepared according to Bitler & McElroy, Arch. Biochem. Biophys. 72, 358 (1957)), 122 μM luciferin (Promega), 153 μM ATP (Sigma) and 0.4 mM DTT (Sigma) in 50 mM TEA, 2 mM MgCl2, 0.1% BSA (fraction V), 0.005% Brij®, pH 7.5] are added. The enzyme reaction is started by adding 20 μl of substrate solution [1.25 mM guanosine 5′-triphosphate (Sigma) in 50 mM TEA, 2 mM MgCl2, 0.1% BSA (fraction V), 0.005% Brij®, pH 7.5] and measured continuously in a luminometer. The extent of the stimulation by the substance to be tested can be determined relative to the signal of the unstimulated reaction.
The activation of haem-free guanylate cyclase is examined by addition of 25 μM of 1H-1,2,4-oxadiazolo[4,3-a]quinoxalin-1-one (ODQ) to the enzyme solution and subsequent incubation for 30 minutes, and compared to the stimulation of the native enzyme.

## C[C@H]([C@H](C(=O)Nc1cc(CCC(=O)O)ccc1Cl)c1ccc(Cl)cc1)C(F)(F)F [Example 15, (+)-3-(4-Chloro-3-{[(2S,3R)-2-(4-chlorophenyl)-4,4,4-trifluoro-3-methylbutanoyl]amino}phenyl)-propanoic acid]
[1]; 0.01 μM test compound
  Stimulation (x-fold) of recombinant sGC, haem-containing sGC, +0.01 μM DEA/NO: 5.9 ± 0.7 x-fold
  Stimulation (x-fold) of recombinant sGC, haem-containing sGC, +10 μM ODQ: 4.6 ± 0.8 x-fold
  Stimulation (x-fold) of recombinant sGC, haem-containing sGC, basal: 1.1 ± 0.1 x-fold
[1]; 0.1 μM test compound
  Stimulation (x-fold) of recombinant sGC, haem-containing sGC, +0.01 μM DEA/NO: 7.4 ± 0.8 x-fold
  Stimulation (x-fold) of recombinant sGC, haem-containing sGC, +10 μM ODQ: 4.5 ± 0.6 x-fold
  Stimulation (x-fold) of recombinant sGC, haem-containing sGC, basal: 1.0 ± 0.1 x-fold
[1]; 1.0 μM test compound
  Stimulation (x-fold) of recombinant sGC, haem-containing sGC, +0.01 μM DEA/NO: 8.5 ± 0.7 x-fold
  Stimulation (x-fold) of recombinant sGC, haem-containing sGC, +10 μM ODQ: 4.8 ± 0.8 x-fold
  Stimulation (x-fold) of recombinant sGC, haem-containing sGC, basal: 0.9 ± 0.1 x-fold
[1]; 10 μM test compound
  Stimulation (x-fold) of recombinant sGC, haem-containing sGC, +0.01 μM DEA/NO: 11.5 ± 0.9 x-fold
  Stimulation (x-fold) of recombinant sGC, haem-containing sGC, +10 μM ODQ: 16.3 ± 1.3 x-fold
  Stimulation (x-fold) of recombinant sGC, haem-containing sGC, basal: 3.1 ± 0.3 x-fold
[1]; 100 μM test compound
  Stimulation (x-fold) of recombinant sGC, haem-containing sGC, +0.01 μM DEA/NO: 45.9 ± 3.1 x-fold
  Stimulation (x-fold) of recombinant sGC, haem-containing sGC, +10 μM ODQ: 97.3 ± 7.7 x-fold
  Stimulation (x-fold) of recombinant sGC, haem-containing sGC, basal: 31.6 ± 2.6 x-fold
[1]
  Effect of combination with the NO donor DEA/NO on sGC stimulation: no synergistic effect
[2]; 0.01 μM test compound
  Stimulation (x-fold) of recombinant sGC, haem-free sGC, basal: 1.7 ± 0.3 x-fold
[2]; 0.1 μM test compound
  Stimulation (x-fold) of recombinant sGC, haem-free sGC, basal: 1.8 ± 0.2 x-fold
[2]; 1.0 μM test compound
  Stimulation (x-fold) of recombinant sGC, haem-free sGC, basal: 3.0 ± 0.5 x-fold
[2]; 10 μM test compound
  Stimulation (x-fold) of recombinant sGC, haem-free sGC, basal: 17.9 ± 3.1 x-fold
[2]; 100 μM test compound
  Stimulation (x-fold) of recombinant sGC, haem-free sGC, basal: 40.3 ± 6.6 x-fold
[3]
  minimal effective concentration: 0.01 µM
[4]
  EC50: 0.29 µM
  Activating action at the sGC enzyme in vitro, MEC: 10 nM

## C[C@H]([C@H](C(=O)Nc1cc(C[C@H](C)C(=O)O)ccc1Cl)c1ccc(Cl)cc1)C(F)(F)F [Example 17, (+)-(2S)-3-(4-Chloro-3-{[(2S,3R)-2-(4-chlorophenyl)-4,4,4-trifluoro-3-methylbutanoyl]amino}-phenyl)-2-methylpropanoic acid]
[1]; 0.01 μM test compound
  Stimulation (x-fold) of recombinant sGC, haem-containing sGC, +0.01 μM DEA/NO: 9.6 ± 0.8 x-fold
  Stimulation (x-fold) of recombinant sGC, haem-containing sGC, +10 μM ODQ: 4.9 ± 1.2 x-fold
  Stimulation (x-fold) of recombinant sGC, haem-containing sGC, basal: 0.7 ± 0.2 x-fold
[1]; 0.1 μM test compound
  Stimulation (x-fold) of recombinant sGC, haem-containing sGC, +0.01 μM DEA/NO: 8.8 ± 1.2 x-fold
  Stimulation (x-fold) of recombinant sGC, haem-containing sGC, +10 μM ODQ: 5.3 ± 1.3 x-fold
  Stimulation (x-fold) of recombinant sGC, haem-containing sGC, basal: 0.6 ± 0.1 x-fold
[1]; 1.0 μM test compound
  Stimulation (x-fold) of recombinant sGC, haem-containing sGC, +0.01 μM DEA/NO: 9.8 ± 1.2 x-fold
  Stimulation (x-fold) of recombinant sGC, haem-containing sGC, +10 μM ODQ: 4.5 ± 1.1 x-fold
  Stimulation (x-fold) of recombinant sGC, haem-containing sGC, basal: 0.6 ± 0.1 x-fold
[1]; 10 μM test compound
  Stimulation (x-fold) of recombinant sGC, haem-containing sGC, +0.01 μM DEA/NO: 10.7 ± 1.0 x-fold
  Stimulation (x-fold) of recombinant sGC, haem-containing sGC, +10 μM ODQ: 8.3 ± 1.4 x-fold
  Stimulation (x-fold) of recombinant sGC, haem-containing sGC, basal: 1.8 ± 0.3 x-fold
[1]; 100 μM test compound
  Stimulation (x-fold) of recombinant sGC, haem-containing sGC, +0.01 μM DEA/NO: 11.4 ± 1.2 x-fold
  Stimulation (x-fold) of recombinant sGC, haem-containing sGC, +10 μM ODQ: 15.0 ± 2.0 x-fold
  Stimulation (x-fold) of recombinant sGC, haem-containing sGC, basal: 4.9 ± 0.7 x-fold
[1]
  Effect of combination with the NO donor DEA/NO on sGC stimulation: no synergistic effect
[2]; 0.01 μM test compound
  Stimulation (x-fold) of recombinant sGC, haem-free sGC, basal: 1.7 ± 0.2 x-fold
[2]; 0.1 μM test compound
  Stimulation (x-fold) of recombinant sGC, haem-free sGC, basal: 2.0 ± 0.3 x-fold
[2]; 1.0 μM test compound
  Stimulation (x-fold) of recombinant sGC, haem-free sGC, basal: 4.1 ± 0.3 x-fold
[2]; 10 μM test compound
  Stimulation (x-fold) of recombinant sGC, haem-free sGC, basal: 22.9 ± 1.8 x-fold
[2]; 100 μM test compound
  Stimulation (x-fold) of recombinant sGC, haem-free sGC, basal: 33.5 ± 3.3 x-fold
[3]
  minimal effective concentration: 0.0048 µM
[4]
  EC50: 0.13 µM
  Activating action at the sGC enzyme in vitro, MEC: 7 nM
